Values of other authors as cited in patent US8404246B2, “Nutritional supplement to improve supplementary target protein fraction (TPF) delivery, intracellular absorption and utilization” (priority 2010, dated 2013).
Read-outs that look alike come from different tables or passages of the source. One block for each compound: values may come before it.

Experiments:
[1] = exogenous form

ingested glycoprotein detectable in serum after dosing (one recent study): 9%
Compound: glucosamine NaCl

ingested glycoprotein detectable in serum after dosing (in vivo): 6%
Compound: Cl.N[C@H]1C(O)O[C@H](CO)[C@@H](O)[C@@H]1O (stereo partly drawn) [glucosamine HCl]

solubility in water [1]: readily soluble
Compound: CC(=O)N[C@H]1C(O)O[C@H](CO)[C@@H](O)[C@@H]1O (stereo partly drawn) [N-acetyl D-glucosamine, N-Acetyl D-Glucosamine]
